Test results reported in ChEMBL document CHEMBL6182882, “Evodiamine-Based Nitroreductase Responsive Theranostic Agents for Treatment of Colon Cancer” (J Med Chem, 2025).
Active and inactive are the calls of the source. No cut-off for these calls is given here.

Assays:
[1] = Prodrug activation in phosphate buffer saline at pH 7.4 assessed as Escherichia coli nitroreductase mediated 3-fluoro-10-hydroxy-14-methyl-8,13,13b,14-tetrahydroindolo[2',3':3,4]pyrido[2,1-b]quinazolin-5(7H)-one formation by measuring fluorescence emission intensity at 25 uM incubated for 2 hrs in presence of NADH by fluorescence spectrophotometric analysis; settings: isolated protein, pH 7.4, 2 h
HCT-116 [2] = assay: Induction of apoptosis in human HCT-116 cells assessed as apoptotic cells at 0.04 to 1.0 uM measured after 48 hrs by flow cytometric analysis (reference value: 4.57%); assay type: functional; settings: dose 0.04-1 µM
[3] = Drug localization in endoplasmic reticulum of human HCT-116 cells at 25 uM incubated for 2 hrs by ER-tracker red dye based confocal imaging analysis; assay type: ADME, subcellular; settings: hct-116, 2 h
[4] = Toxicity in male nude mouse assessed as change in body weight at 10 mg/kg, ip administered twice daily for 14 consecutive days; assay type: organism-based; settings: in vivo
[5] = Prodrug activation in phosphate buffer saline at pH 7.4 assessed as Escherichia coli nitroreductase mediated 3-fluoro-10-hydroxy-14-methyl-8,13,13b,14-tetrahydroindolo[2',3':3,4]pyrido[2,1-b]quinazolin-5(7H)-one formation by measuring fold increase in fluorescence emission intensity at 25 uM incubated for 2 hrs in presence of NADH by fluorescence spectrophotometric analysis; settings: isolated protein, pH 7.4, 2 h
A549 [6] = assay: Induction of apoptosis in human A549 cells assessed as apoptotic cells at 0.04 to 1.0 uM measured after 48 hrs by flow cytometric analysis (reference value: 6.44%); assay type: functional; settings: dose 0.04-1 µM
A549 [7] = assay: Induction of cell cycle arrest in human A549 cells assessed as accumulation of cells at G2/M phase at 1.0 uM measured after 24 hrs by flow cytometric analysis (reference value: 3.81%); assay type: functional
[8] = Drug localization in lysosome of human HCT-116 cells at 25 uM incubated for 2 hrs by Lyso-tracker red dye based confocal imaging analysis; assay type: ADME, subcellular; settings: hct-116, 2 h
A549 [9] = assay: Cytotoxicity against human A549 cells assessed as inhibition of cell growth incubated for 72 hrs under normoxic conditions by CCK-8 assay; assay type: functional, cell-based; settings: A549, 72 h
A549 [10] = assay: Induction of cell cycle arrest in human A549 cells assessed as accumulation of cells at G2/M phase at 0.04 uM measured after 24 hrs by flow cytometric analysis relative to control; assay type: functional
[11] = Drug localization in Mitochondria of human HCT-116 cells at 25 uM incubated for 2 hrs by Mito-tracker green dye based confocal imaging analysis; assay type: ADME; settings: hct-116, 2 h
HCT-116 [12] = assay: Induction of cell cycle arrest in human HCT-116 cells assessed as accumulation of cells at G2/M phase at 1.0 uM measured after 24 hrs by flow cytometric analysis (reference value: 18.45 %); assay type: functional
A549 [13] = assay: Induction of cell cycle arrest in human A549 cells assessed as accumulation of cells at G2/M phase at 0.2 uM measured after 24 hrs by flow cytometric analysis (reference value: 3.81%); assay type: functional
HCT-116 [14] = assay: Induction of cell cycle arrest in human HCT-116 cells assessed as accumulation of cells at G2/M phase at 0.2 uM measured after 24 hrs by flow cytometric analysis (reference value: 18.45 %); assay type: functional
[15] = Cytotoxicity against human HUVEC cells assessed as inhibition of cell growth incubated for 72 hrs under normoxic condition by CCK-8 assay; assay type: toxicity, cell-based
HCT-116 [16] = assay: Induction of cell cycle arrest in human HCT-116 cells assessed as accumulation of cells at G1 phase at 1.0 uM measured after 24 hrs by flow cytometric analysis (reference value: 48.40 %); assay type: functional
Bacteroides fragilis = assay: Antibacterial activity against Bacteroides fragilis; assay type: functional
[17] = Drug localization in Cell membrane of human HCT-116 cells at 25 uM incubated for 2 hrs by Dio- tracker green dye based confocal imaging analysis; assay type: ADME, cell membranes; settings: hct-116, 2 h
[18] = Drug localization in nucleus of human HCT-116 cells at 25 uM incubated for 2 hrs by […] dye based confocal imaging analysis; assay type: ADME, subcellular; settings: hct-116, 2 h
HUVEC = assay: Binding affinity to NTR in human HUVEC cells assessed as fluorescence intensity at 10 to 100 uM incubated for 2 hrs by confocal fluorescence microscopic analysis; assay type: cell-based; settings: dose 10-100 µM
HCT-116 [19] = assay: Induction of cell cycle arrest in human HCT-116 cells assessed as accumulation of cells at G1 phase at 0.2 uM measured after 24 hrs by flow cytometric analysis (reference value: 48.40 %); assay type: functional
HCT-116 [20] = assay: Induction of cell cycle arrest in human HCT-116 cells assessed as accumulation of cells at S phase at 0.04 uM measured after 24 hrs by flow cytometric analysis (reference value: 33.15 %); assay type: functional
HCT-116 [21] = assay: Induction of cell cycle arrest in human HCT-116 cells assessed as accumulation of cells at G1 phase at 0.04 uM measured after 24 hrs by flow cytometric analysis (reference value: 48.40 %); assay type: functional
A549 [22] = assay: Binding affinity to NTR in human A549 cells assessed as increase in fluorescence intensity at 10 to 100 uM incubated for 2 hrs by confocal fluorescence microscopic analysis; assay type: cell-based; settings: dose 10-100 µM
HCT-116 [23] = assay: Induction of cell cycle arrest in human HCT-116 cells assessed as accumulation of cells at S phase at 0.2 uM measured after 24 hrs by flow cytometric analysis (reference value: 33.15 %); assay type: functional
HCT-116 [24] = assay: Binding affinity to NTR in human HCT-116 cells assessed as increase in fluorescence intensity at 10 to 100 uM incubated for 2 hrs by confocal fluorescence microscopic analysis; assay type: cell-based; settings: dose 10-100 µM
HCT-116 [25] = assay: Cytotoxicity against human HCT-116 cells assessed as inhibition of cell growth incubated for 72 hrs under normoxic conditions by CCK-8 assay; assay type: functional, cell-based; settings: HCT-116, 72 h
A549 [26] = assay: Binding affinity to NTR in human A549 cells assessed as increase in fluorescence intensity at 25 uM incubated for 2 hrs under 2 to 10 % hypoxic condition by confocal fluorescence imaging based analysis; assay type: cell-based
[27] = Drug uptake in male nude mouse kidney xenografted in human HCT-116 cells at 10 mg/kg, […] administered via tail vein and measured at 12 hrs post injection by fluorescence imaging analysis; assay type: ADME, organism-based; settings: in vivo
HCT-116 [28] = assay: Induction of cell cycle arrest in human HCT-116 cells assessed as accumulation of cells at S phase at 1.0 uM measured after 24 hrs by flow cytometric analysis (reference value: 33.15 %); assay type: functional
A549 [29] = assay: Cytotoxicity against human A549 cells assessed as inhibition of cell growth incubated for 72 hrs under hypoxic conditions by CCK-8 assay; assay type: functional, cell-based; settings: A549, 72 h
[30] = Metabolic stability in ICR mouse liver microsomes assessed as intrinsic clearance; assay type: ADME, Microsome; settings: read-out: CLH
HCT-116 [31] = assay: Induction of cell cycle arrest in human HCT-116 cells assessed as accumulation of cells at G2/M phase at 0.04 uM measured after 24 hrs by flow cytometric analysis (reference value: 18.45 %); assay type: functional
HCT-116 [32] = assay: Binding affinity to NTR in human HCT-116 cells assessed as increase in fluorescence intensity at 25 uM incubated for 2 hrs under 2 to 10 % hypoxic condition by confocal fluorescence imaging based analysis; assay type: cell-based
[33] = Prodrug activation in phosphate buffer saline at pH 7.4 assessed as Escherichia coli nitroreductase mediated 3-fluoro-10-hydroxy-14-methyl-8,13,13b,14-tetrahydroindolo[2',3':3,4]pyrido[2,1-b]quinazolin-5(7H)-one formation by measuring fluorescence emission intensity at 10 uM incubated for 2 hrs in presence of 1 to 7 microg/ml NTR and NADH by fluorescence spectrophotometric analysis; settings: isolated protein, pH 7.4, 2 h
[34] = Drug uptake in male nude mouse tumor xenografted in human HCT-116 cells at 10 mg/kg, […] administered via tail vein and measured at 12 hrs post injection by fluorescence imaging analysis; assay type: ADME, organism-based, Neoplasm; settings: in vivo
HCT-116 [35] = assay: Cytotoxicity against human HCT-116 cells assessed as inhibition of cell growth incubated for 72 hrs under hypoxic conditions by CCK-8 assay; assay type: functional, cell-based; settings: HCT-116, 72 h
HCT-116 [36] = assay: Antitumor activity against human HCT-116 cells xenografted in male nude mouse assessed as tumor growth inhibition at 10 mg/kg, ip administered twice daily for 14 consecutive days; assay type: functional; settings: read-out: TGI
[37] = Drug localization in lysosome of human A549 cells at 25 uM incubated for 2 hrs by Lyso-tracker red dye based confocal imaging analysis; assay type: ADME, subcellular; settings: a549, 2 h
[38] = Metabolic stability in ICR mouse liver microsomes assessed as terminal half life; assay type: ADME, Microsome; settings: read-out: beta t1/2
[39] = Prodrug activation in phosphate buffer saline at pH 7.4 assessed as Escherichia coli nitroreductase mediated 3-fluoro-10-hydroxy-14-methyl-8,13,13b,14-tetrahydroindolo[2',3':3,4]pyrido[2,1-b]quinazolin-5(7H)-one formation by measuring fluorescence emission intensity at 25 uM incubated for 0.5 to 2 hrs in presence of 1 to 7 microg/ml NTR and NADH by fluorescence spectrophotometric analysis; settings: isolated protein, pH 7.4, 25 µM, time 0.5-2 hrs
[40] = biological target: T1, DNA topoisomerase 1 (Homo sapiens) (UniProt P11387); assay: Inhibition of topoisomerase 1 (unknown origin) […] activity using pBR322 DNA as substrate at 125 to 250 uM incubated for 15 mins by ethidium bromide staining based agarose gel electrophoresis; settings: dose 125-250 µM
T1 sequence (whole entry): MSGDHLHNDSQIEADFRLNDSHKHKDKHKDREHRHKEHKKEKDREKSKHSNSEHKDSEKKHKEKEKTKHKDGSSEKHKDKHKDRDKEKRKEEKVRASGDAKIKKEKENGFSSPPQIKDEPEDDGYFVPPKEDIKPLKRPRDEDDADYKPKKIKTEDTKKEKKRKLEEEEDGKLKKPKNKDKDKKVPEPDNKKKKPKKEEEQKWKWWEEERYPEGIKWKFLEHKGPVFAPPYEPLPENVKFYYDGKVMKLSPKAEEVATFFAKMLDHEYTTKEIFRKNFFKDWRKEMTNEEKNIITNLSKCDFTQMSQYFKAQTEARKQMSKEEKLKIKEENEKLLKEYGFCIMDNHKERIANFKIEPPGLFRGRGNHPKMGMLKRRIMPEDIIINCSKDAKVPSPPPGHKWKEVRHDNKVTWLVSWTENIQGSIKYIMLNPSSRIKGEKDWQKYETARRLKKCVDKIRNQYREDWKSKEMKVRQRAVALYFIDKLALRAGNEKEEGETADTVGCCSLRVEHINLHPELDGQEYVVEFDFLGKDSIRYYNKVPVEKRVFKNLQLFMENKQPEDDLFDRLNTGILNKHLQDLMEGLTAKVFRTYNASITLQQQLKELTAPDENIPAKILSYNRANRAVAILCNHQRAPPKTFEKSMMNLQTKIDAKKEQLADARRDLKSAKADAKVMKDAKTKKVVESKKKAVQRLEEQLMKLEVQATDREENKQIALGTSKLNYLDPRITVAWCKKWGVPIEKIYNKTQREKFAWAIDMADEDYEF

Fusobacterium nucleatum = assay: Antibacterial activity against Fusobacterium nucleatum; assay type: functional

## CN1c2ccc(F)cc2C(=O)N2CCc3c([nH]c4ccc(OC(=O)CCC(=O)OCc5cc6ccc(OCc7ccc([N+](=O)[O-])cc7)cc6oc5=O)cc34)C21 (centres undefined)
[1]
  Drug metabolism: metabolite_detected

## CN1c2ccc(F)cc2C(=O)N2CCc3c([nH]c4ccc(OC(=O)/C=C/C(=O)OCc5cc6ccc(OCc7ccc([N+](=O)[O-])cc7)cc6oc5=O)cc34)C21 (centres undefined)
HCT-116 [2]
  Activity: 13.04%
[3]
  Drug uptake: Active
[4]
  Activity: Non-toxic
[5]
  fold change (FC): 14
A549 [6]
  Activity: 18.27%
A549 [7]
  Activity: 59.51%
[8]
  Drug uptake: Active
A549 [9]
  IC50: 255 nM
A549 [10]
  Activity: 10.87%
[11]
  Drug uptake: Active
[1]
  Drug metabolism: metabolite_detected
HCT-116 [12]
  Activity: 96.66%
A549 [13]
  Activity: 47.03%
HCT-116 [14]
  Activity: 74.9%
[15]
  IC50 at 72 h: 120 nM
HCT-116 [16]
  Activity: 0.56%
Bacteroides fragilis
  MIC50: > 64 µg/mL
[17]
  Drug uptake: Active
[18]
  Drug uptake: Active
HUVEC
  Activity: Active; Weak Fluorescence Observed
HCT-116 [19]
  Activity: 7.74%
HCT-116 [20]
  Activity: 32.22%
HCT-116 [21]
  Activity: 43.77%
A549 [22]
  Activity: Active
HCT-116 [23]
  Activity: 17.36%
HCT-116 [24]
  Activity: Active; Stronger Fluorescence Intensity Observed
HCT-116 [25]
  IC50: 145 nM
A549 [26]
  Activity: Active
[27]
  Drug uptake: Active
HCT-116 [28]
  Activity: 2.78%
A549 [29]
  IC50: 38 nM
[30]
  CLint scaled: 9.54 mL/min/kg
HCT-116 [31]
  Activity: 24.01%
HCT-116 [32]
  Activity: Active
[33]
  Drug metabolism: metabolite_detected
[34]
  Drug uptake: Active
HCT-116 [35]
  IC50: 71 nM
HCT-116 [36]
  inhibition in vivo at 10 mg/kg: 76.1%
[37]
  Drug uptake: Active
[38]
  half-life: 9.53 h
[39]
  Drug metabolism: metabolite_detected
[40]
  inhibition: Weak_effect

## CN1c2ccc(F)cc2C(=O)N2CCc3c([nH]c4ccc(O)cc34)C21 (centres undefined)
[15]
  IC50 at 72 h: 44 nM
Fusobacterium nucleatum
  MIC50: > 64 µg/mL
A549 [29]
  IC50: 15 nM
[30]
  CLint scaled: 555 mL/min/kg
HCT-116 [35]
  IC50: 15 nM
[38]
  half-life: 0.164 h
